Test results: US6974804B2, “Esters” (Unilever Home & Personal Care USA, division of Conopco, Inc., priority 2000, dated 2005)

Assays:
Assay type in all cases: physicochemical
[1] = Visual assessment score (clarity of gel in 1 cm cuvette); conditions: for Clarity Visual (assessment score): scale −12 to 8
Description: A gel contained within a 1 cm thick cuvette was placed directly on to a sheet of white paper on which 21 sets of figures where printed in black. The size and thickness of the figures varied systematically and were numbered from −12 (the largest, thickest set) through 0 to 8 (the smallest thinnest set) The score given to each gel was the highest numbered set which could be read clearly through the gel, the higher the number, the higher the clarity.

[2] = Gelling of water-immiscible cosmetic liquids in 96 well glass micro-titre plate; set-up: key: gel; g4: gel after overnight (18 hrs) storage at 4° C.; g22: gel after overnight (18 hrs) storage at 22° C.; sg: soft gel; sg22: soft gel after overnight (18 hrs) storage at 22° C.; solution; *: the test at 4° C. was not carried out; conditions: for gelling of ISA: 150° C. 2.5 hours, cooled to ambient
How it was run: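 Esterified cellobiose at about 5% or 10% was mixed with the cosmetic liquid in lidded glass wells and heated at 150 °C for 2.5 h, then cooled to ambient. Gelling was judged by visual inspection and micro-spatula probing after cooling, after 18 h at 18 °C, and after a further 18 h at 4 °C.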

[3] = Light transmission at 580 nm (% T); conditions: 580 nm
Description: The translucency of a composition may be measured by placing a sample of standardised thickness in the light path of a spectrophotometer and measuring transmittance, as a percentage of light transmitted in the absence of the gel.
This test was carried out using a dual-beam spectrophotometer. The sample of composition was poured hot into a 4.5 ml cuvette made of poly(methyl-methacrylate) (PMMA) and allowed to cool to an ambient temperature of 20-25° C. Such a cuvette gives a 1 cm thickness of composition. […] A transmittence measured at any temperature in the range from 20-25° C. is usually adequately accurate, but measurement is made at 22° C. if more precision is required.

[4] = DSC of gels: fibre dissolution temperature (FDT) and solubility of structurant; conditions: for Solubility of structurant at 25° C.: from DSC of gel, relative to benchmark REF 2; for FDT: gel heated at 5 K/min in DSC, peak temperature of the highest peak
Description: In this Example the Fibre dissolution temperature (FDT) is measured in the DSC process described later herein, by observing when the fibres dissolve whilst the temperature of sample rises. FDT is taken to be the peak temperature of the highest peak.
In REF2 and REF3, the acyl substituents at the other seven cellobiose sites are nonanoyl.
Samples of gel (about 20 mg) were sealed in stainless steel capsules for DSC. An empty stainless steel capsule was used as the physical reference. The samples were subjected to the following temperature programme:
The sample was heated to 100° C. and held at 100° C. for 1 minute, in order to obtain an isotropic solution. The sample was then cooled at 5 K/min to −20° C. The sample was held at −20° C. for 1 minute. The sample is now a gel on the bottom of the sample capsule prepared in a reproducible manner. The gel was then heated at 5 K/min to 100° C. Data was also obtained with empty stainless steel pans as both physical sample and reference. This blank data was later subtracted from the sample data to remove any curvature in the base line.

[5] = Stability testing of gels: crystal growth visible by eye on storage at 37° C.
Description: Gels were made up using 10% structurant in a 60:40 mixture of Hydrogenated Polyisobutene (Panalene L14E):DC245. The gels, in sealed glass bottles, were left to stand for 18 hrs at room temperature, after which they were transferred to an oven thermostatically controlled to 37° C. Samples were checked periodically for signs of crystal growth visible by eye. REF1 is cellobiose octanonanoate.
Gels were made up and tested in accordance with the procedure in Example 6, as such or modified by employing a weight ratio of 9% of REF1 and 1% of an additional structurant as specified in Table 13 below.
The test procedure of Example 9 was repeated, but using ACB structurant REF2 alone as the structurant or to which a CHME structurant was added.

[6] = 9% REF2 and 1% of the specified ester in 60:40 hydrogenated polydecene:DC245
[7] = 60:40 hydrogenated polydecene:DC245 gelled with 9% REF2 and 1% of the specified cellobiose ester
[8] = 5% cellobiose ester in Fluid AP
[9] = 5% cellobiose ester in Mineral oil
[10] = 5% cellobiose ester in Polydecene
[11] = 10% cellobiose ester in Fluid AP
[12] = 10% cellobiose ester in Mineral oil
[13] = 10% cellobiose ester in Polydecene
[14] = 9% REF4 plus 1% of the named material in 60:40 hydrogenated polydecene:DC245
[15] = 9% REF4 plus 1% of the named material

| Compound | Clarity Visual (assessment score) [1, 6] | Clarity Visual (appearance) [1, 7] | gelling of DC556 ([2]; 5% cellobiose ester in DC556) | gelling of Fluid AP [2, 8] | gelling of IPM ([2]; 5% cellobiose ester in IPM) | gelling of ISA ([2]; 5% cellobiose ester in ISA) | gelling of Mineral oil [2, 9] | gelling of Polydecene [2, 10] | gelling of IPM ([2]; 10% cellobiose ester in IPM) | Clarity % T [3, 6] [%] | gelling of DC556 ([2]; 10% cellobiose ester in DC556) | gelling of Fluid AP [2, 11] | gelling of ISA ([2]; 10% cellobiose ester in ISA) | gelling of Mineral oil [2, 12] | gelling of Polydecene [2, 13] | also measured |
| --- | --- | --- | --- | --- | --- | --- | --- | --- | --- | --- | --- | --- | --- | --- | --- | --- |
| CCCCCCCCCCCCCCCC(=O)OC1OC(COC(=O)CCCCCCCC)C(OC2OC(COC(=O)CCCCCCCC)C(OC(=O)CCCCCCCC)C(OC(=O)CCCCCCCC)C2OC(=O)CCCCCCCC)C(OC(=O)CCCCCCCC)C1OC(=O)CCCCCCCC (mixture of isomers) [Ex 1.9] | > 8 | transparent | gel | gel | g4 | g22 | g22 | gel | g4 | 45 |  |  |  |  |  |  |
| CCCCCCCCC(=O)OCC1OC(OC2C(COC(=O)CCCCCCCC)OC(OC(=O)c3ccc4ccccc4c3)C(OC(=O)CCCCCCCC)C2OC(=O)CCCCCCCC)C(OC(=O)CCCCCCCC)C(OC(=O)CCCCCCCC)C1OC(=O)CCCCCCCC (mixture of isomers) [Ex 1.4] | slight haze >8 | transparent/ | gel | gel | sol | g22 | g22 | g22 | sol | 38 | gel | gel | g22 | g22 | gel | gelling of Finsolv TN ([2]; 5% cellobiose ester in Finsolv TN): sol; gelling of Finsolv TN ([2]; 10% cellobiose ester in Finsolv TN): sol |
| CCCCCCCCCC(=O)OCC1OC(OC2C(COC(=O)CCCCCCCCC)OC(OC(=O)c3ccc(-c4ccccc4)cc3)C(OC(=O)CCCCCCCCC)C2OC(=O)CCCCCCCCC)C(OC(=O)CCCCCCCCC)C(OC(=O)CCCCCCCCC)C1OC(=O)CCCCCCCCC (mixture of isomers) [Ex 2.9] |  |  | gel | gel |  | g22 | sg | gel |  |  | gel | gel | gel | gel | gel | Clarity Visual (appearance) [1, 14]: translucent; Clarity Visual (assessment score) [1, 15]: −3; Clarity % T [3, 15]: 7.7% |
| CCCCCCCCC(=O)OCC1OC(OC2C(COC(=O)CCCCCCCC)OC(OC(C)=O)C(OC(=O)CCCCCCCC)C2OC(=O)CCCCCCCC)C(OC(=O)CCCCCCCC)C(OC(=O)CCCCCCCC)C1OC(=O)CCCCCCCC (mixture of isomers) [Ex 1.5] | > 8 | transparent | g22 | gel |  | g22 | g22 | gel |  | 49 | gel | gel | gel | gel | gel | Solubility of structurant at 25° C. [4]: Less soluble. No; FDT [4]: 50 °C |
| cellobiose heptanonanoate monocyclohexanoate [Ex 1.10] | slight haze 6 | transparent/ | gel | gel | sol | g22 | gel | gel | g4 | 42 | gel | gel | gel | gel | gel | Visual ([1]; gel in 60:40 w/w Silkflo 364:DC245, score scale −12 to 8): >8; Observations ([5]; 9% of REF1 and 1% of additional structurant, after 12 days at 37° C.): No crystal growth after 12 days at 37 °C; Observation ([5]; 10% structurant in 60:40 Panalene L14E:DC245, after 17 days at 37° C.): No crystals after 17 days.; Observation ([5]; REF2 to which the CHME structurant was added, after 11 days at 37° C.): Some needle crystals on surface after 11; Observation ([5]; REF2 to which the CHME structurant was added, after 12 days at 37° C.): Some needle crystals in gel bulk after 12 |
| CCCCCCCCCC(=O)OCC1OC(OC2C(COC(=O)CCCCCCCCC)OC(OC(=O)C3CCCCC3)C(OC(=O)CCCCCCCCC)C2OC(=O)CCCCCCCCC)C(OC(=O)CCCCCCCCC)C(OC(=O)CCCCCCCCC)C1OC(=O)CCCCCCCCC (mixture of isomers) [Ex 2.10] |  |  | gel | gel |  | g22 | gel | gel |  |  | gel | gel | gel | gel | gel | Clarity Visual (appearance) [1, 14]: translucent; Clarity Visual (assessment score) [1, 15]: −5; Clarity % T [3, 15]: 5.9% |
| CCCCCCCCC(=O)OCC1OC(OC2C(COC(=O)CCCCCCCC)OC(OC(C)=O)C(OC(=O)CCCCCCCC)C2OC(=O)CCCCCCCC)C(OC(=O)CCCCCCCC)C(OC(=O)CCCCCCCC)C1OC(=O)CCCCCCCC (mixture of isomers) [Ex 1.6] | > 8 | transparent | sg22 | sg |  | sg | sg | gel |  | 49 | gel | gel | gel | gel | gel | Solubility of structurant at 25° C. [4]: Less soluble. No; FDT [4]: 70 °C |
